In US10266497B2 (ABIDE THERAPEUTICS, INC., priority 2017, dated 2019):
Like-named read-outs stand apart in the source and are kept apart here.

Tests used:
[1] = biological target: T1, MAGL (Mus musculus, UniProt O35678); test: In vitro competitive activity-based protein profiling, MAGL, mouse; details: read-out: MAGL % inh. 1 μM (mouse)
T1 sequence (O35678 1-303): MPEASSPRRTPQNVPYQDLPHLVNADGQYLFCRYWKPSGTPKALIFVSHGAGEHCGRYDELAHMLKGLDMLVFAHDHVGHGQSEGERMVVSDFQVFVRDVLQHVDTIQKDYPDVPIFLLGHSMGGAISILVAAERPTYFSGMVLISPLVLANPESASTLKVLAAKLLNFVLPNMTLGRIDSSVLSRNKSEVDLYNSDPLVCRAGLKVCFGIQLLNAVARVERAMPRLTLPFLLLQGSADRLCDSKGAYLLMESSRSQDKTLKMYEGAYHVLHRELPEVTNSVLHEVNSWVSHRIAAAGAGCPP

[2] = biological target: T2, MAGL (Homo sapiens, UniProt Q99685); test: In vitro competitive activity-based protein profiling, MAGL, human; details: read-out: MAGL % inh. 1 μM (human)
T2 sequence (Q99685 1-303): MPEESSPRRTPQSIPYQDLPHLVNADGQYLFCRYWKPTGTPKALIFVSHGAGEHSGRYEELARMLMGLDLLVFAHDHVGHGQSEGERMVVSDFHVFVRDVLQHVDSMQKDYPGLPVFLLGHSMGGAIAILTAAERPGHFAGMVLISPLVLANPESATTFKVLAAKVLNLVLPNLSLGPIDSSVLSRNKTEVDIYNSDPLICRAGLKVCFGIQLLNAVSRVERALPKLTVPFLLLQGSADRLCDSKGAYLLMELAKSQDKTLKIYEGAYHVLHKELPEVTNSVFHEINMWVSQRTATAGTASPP

[3] = biological target: T1, MAGL; test: Mouse brain proteomes from inhibitor treated mice (oral gavage, sacrificed 4 h after administration); format: in vivo; parameters: mouse brain membrane fraction for mouse assays; from tissue; host or cells: mouse brain (membrane fraction in vitro; brain proteomes of treated C57Bl/6J mice in vivo); details: 5 mg/kg oral gavage, brain proteome 4 h after administration, read-out: MAGL % inh. 5 mg/kg (mouse)
[4] = biological target: T3, FAAH (Homo sapiens, UniProt O00519); test: In vitro competitive activity-based protein profiling, FAAH, human; details: for inhibition at 1 µM: read-out: FAAH % inh. 1 μM (human)
T3 sequence (O00519 1-579): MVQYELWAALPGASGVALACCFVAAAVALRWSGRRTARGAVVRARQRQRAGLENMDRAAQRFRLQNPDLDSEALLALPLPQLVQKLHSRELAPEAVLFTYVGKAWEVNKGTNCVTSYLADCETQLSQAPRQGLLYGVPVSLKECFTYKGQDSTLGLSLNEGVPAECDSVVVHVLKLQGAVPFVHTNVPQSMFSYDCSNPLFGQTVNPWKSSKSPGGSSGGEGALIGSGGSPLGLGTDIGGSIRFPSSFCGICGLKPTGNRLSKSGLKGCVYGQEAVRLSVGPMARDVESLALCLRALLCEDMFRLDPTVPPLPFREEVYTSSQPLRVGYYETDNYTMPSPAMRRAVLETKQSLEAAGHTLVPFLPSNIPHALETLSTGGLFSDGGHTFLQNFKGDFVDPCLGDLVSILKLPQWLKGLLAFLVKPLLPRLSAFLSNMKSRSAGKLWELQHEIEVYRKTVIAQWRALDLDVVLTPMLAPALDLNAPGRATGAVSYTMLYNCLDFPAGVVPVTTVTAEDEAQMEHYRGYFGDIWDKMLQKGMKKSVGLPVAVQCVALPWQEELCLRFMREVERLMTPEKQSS

[5] = biological target: T4, FAAH (Mus musculus, UniProt O08914); test: In vitro competitive activity-based protein profiling, FAAH, mouse; details: read-out: FAAH % inh. 1 μM (mouse)
T4 sequence (O08914 1-579): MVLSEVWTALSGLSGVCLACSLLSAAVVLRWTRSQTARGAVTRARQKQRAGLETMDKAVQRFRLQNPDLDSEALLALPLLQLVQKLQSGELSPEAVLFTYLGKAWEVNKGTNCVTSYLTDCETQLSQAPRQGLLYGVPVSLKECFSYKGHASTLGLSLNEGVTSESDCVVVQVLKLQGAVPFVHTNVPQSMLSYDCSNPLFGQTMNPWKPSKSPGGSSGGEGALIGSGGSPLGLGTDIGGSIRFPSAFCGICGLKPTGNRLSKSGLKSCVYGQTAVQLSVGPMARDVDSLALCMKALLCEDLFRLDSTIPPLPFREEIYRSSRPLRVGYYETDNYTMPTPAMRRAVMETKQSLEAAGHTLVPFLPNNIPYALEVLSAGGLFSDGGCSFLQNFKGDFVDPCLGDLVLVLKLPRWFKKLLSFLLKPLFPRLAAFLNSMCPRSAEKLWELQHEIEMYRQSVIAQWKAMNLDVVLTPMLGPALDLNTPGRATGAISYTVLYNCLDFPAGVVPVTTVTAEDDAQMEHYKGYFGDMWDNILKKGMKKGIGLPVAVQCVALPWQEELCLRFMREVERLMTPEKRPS

SMILES | inhibition at 1 µM [1] [%] | inhibition at 1 µM [2] [%] | inhibition at 5 mg/kg [3] [%] | inhibition at 5 mg/kg ([3]; C57Bl/6J mice) [%] | inhibition at 1 µM [4] [%] | inhibition at 1 µM [5] [%] | IC50 [4] [µM]
C[C@@H]1C[C@@H](N(C)Cc2cccc(C(F)(F)F)c2)CCN1C(=O)n1ccc(C(N)=O)n1 [Example 260, 1-((2R,4S)-2-methyl-4-(methyl(3-(trifluoromethyl)benzyl)amino)piper-idine-1-carbonyl)-1H-pyrazole-3-carboxamide] | > 75 | > 75 | > 75 | – | – | – | –
CC(C)c1cccc(O[C@H]2C[C@@H]3CN(C(=O)n4ccc(C(=O)O)n4)C[C@@H]3C2)c1 [Example 220, 1-(trans-5-(3-isopropylphenoxy)ocatahydrocyclo-penta[c]pyrrole-2-carbonyl)-1H-pyrazole-3-carboxylic acid] | > 75 | > 75 | 25 to 50 | – | – | – | –
CNC(=O)c1ccn(C(=O)N2CC3CN(Cc4ccc(Cl)cc4)CC3C2)n1 (stereo not drawn) [Example 424, 1-(5-(4-chlorobenzyl)octahydropyrrolo [3,4-c]pyrrole-2-carbonyl)-N-methyl-1H-pyrazole-3-carboxamide] | > 75 | – | – | > 75 | – | – | –
C[C@H]1CN(Cc2cccc(Oc3ccc(Cl)cc3)c2)CCN1C(=O)n1ccc(C(=O)O)n1 [Example 311, (S)-1-(4-(3-(4-chlorophenoxy)benzyl)-2-methylpiperazine-1-carbonyl)-1H-pyrazole-3-carboxylic acid] | > 75 | > 75 | 0 to 25 | – | – | – | –
Cc1cc(-c2ccccc2)ccc1CN1CCN(C(=O)n2ccc(C(=O)O)n2)[C@H](C)C1 [Example 245, (R)-1-(2-methyl-4-((3-methyl-[1,1′-biphenyl]-4-yl)methyl)piperazine-1-carbonyl)-1H-pyrazole-3-carboxylic acid] | > 75 | > 75 | 0 to 25 | – | – | – | –
NC(=O)c1ccn(C(=O)N2CCC3(CCN(Cc4cc(Cl)ccc4Cl)C3)C2)n1 (stereo not drawn) [Example 426, 1-(7-(2,5-dichlorobenzyl)-2,7-diazaspiro[4.4]non-ane-2-carbonyl)-1H-pyrazole-3-carboxamide] | > 75 | – | – | > 75 | – | – | –
NC(=O)c1ccn(C(=O)N2CC3CN(Cc4ccc(C5(C(=O)O)CCOCC5)cc4C(F)(F)F)CC3C2)n1 (stereo not drawn) [Example 35, 4-(4-((5-(3-carbamoyl-1H-pyrazole-1-carbonyl)hexahydropyrrolo[3,4-c]pyrrol-2(1H)-yl)methyl)-3-(trifluoromethyl)phenyl)tetrahydro-2H-pyran-4-carboxylic Acid] | > 75 | > 75 | 0 to 25 | – | – | – | –
O=C(O)c1nn(C(=O)N2CCC3(CCN(Cc4cc(Cl)cc(C(F)(F)F)c4)C3)CC2)cc1Cl [Example 388, 4-chloro-1-(2-(3-chloro-5-(trifluoromethyl)benzyl)-2,8-diazaspiro[4.5]decane-8-carbonyl)-1H-pyrazole-3-carboxylic acid] | > 75 | > 75 | 0 to 25 | – | – | – | –
CN(Cc1cc(N2CCCC2)cc(C(F)(F)F)c1)C1(C)CCN(C(=O)n2ccc(C(=O)O)n2)CC1 [Example 381, 1-(4-methyl-4-(methyl(3-(pyrrolidin-1-yl)-5-(trifluoromethyl)benzyl)amino)piper-idine-1-carbonyl)-1H-pyrazole-3-carboxylic acid] | > 75 | > 75 | 0 to 25 | – | – | – | –
CN(Cc1cccc(C(F)(F)F)c1)C1CCN(C(=O)n2ccc(C(N)=O)n2)CC1 [Example 176, 1-(4-(methyl(3-(trifluoromethyl)benzyl)amino)piper-idine-1-carbonyl)-1H-pyrazole-3-carboxamide] | > 75 | > 75 | – | – | > 75 | > 75 | –

The next lines start with the values.

inhibition at 1 µM [1] [%] | inhibition at 1 µM [2] [%] | inhibition at 5 mg/kg [3] [%] | inhibition at 5 mg/kg ([3]; C57Bl/6J mice) [%] | inhibition at 1 µM [4] [%] | inhibition at 1 µM [5] [%] | IC50 [4] [µM] | SMILES
> 75 | > 75 | 0 to 25 | – | – | – | – | O=C(O)c1ccn(C(=O)N2CCC(Oc3cc(N4CCCC4)cc(C(F)(F)F)c3)CC2)n1 [Example 308, 1-(4-(3-(pyrrolidin-1-yl)-5-(trifluoromethyl)phenoxy)piperidine-1-carbonyl)-1H-pyrazole-3-carboxylic acid]
> 75 | > 75 | 0 to 25 | – | – | – | – | C[C@@H]1CN(Cc2ccc(C(F)(F)F)cc2N2CCCC2)CCN1C(=O)n1ccc(C(=O)O)n1 [Example 327, (R)-1-(2-methyl-4-(2-(pyrrolidin-1-yl)-4-(trifluoromethyl)benzyl)piperazine-1-carbonyl)-1H-pyrazole-3-carboxylic acid]
> 75 | > 75 | – | 0 to 25 | – | – | – | O=C(O)c1ccn(C(=O)N2CCC3(CCCN3Cc3ccc(C(F)(F)F)cc3N3CCCCC3)CC2)n1 [Example 404, 1-(1-(2-(piperidin-1-yl)-4-(trifluoromethyl)benzyl)-1,8-diazaspiro[4.5]decane-8-carbonyl)-1H-pyrazole-3-carboxylic acid]
> 75 | > 75 | 0 to 25 | – | – | – | – | O=C(O)c1ccn(C(=O)N2CCN(Cc3cc(Cl)cc(-c4cncnc4)c3)CC2)n1 [Example 269, 1-(4-(3-chloro-5-(pyrimidin-5-yl)benzyl)piperazine-1-carbonyl)-1H-pyrazole-3-carboxylic acid]
> 75 | > 75 | 25 to 50 | – | – | – | – | C[C@@H]1CN(Cc2ccc(-c3ccccc3)cc2Cl)CCN1C(=O)n1ccc(C(=O)O)n1 [Example 291, (R)-1-(4-((3-chloro-[1,1′-biphenyl]-4-yl)methyl)-2-methylpiperazine-1-carbonyl)-1H-pyrazole-3-carboxylic acid]
> 75 | > 75 | 0 to 25 | – | – | – | – | O=C(O)c1ccn(C(=O)N2C[C@H]3C[C@H](Oc4cc(Cl)cc(Cl)c4)C[C@H]3C2)n1 [Example 230, 1-(trans-5-(3,5-dichlorophenoxy)octahydrocyclopenta [c]pyrrole-2-carbonyl)-1H-pyrazole-3-carboxylic acid]
> 75 | – | – | > 75 | – | – | – | NC(=O)c1ccn(C(=O)N2CCC3(CCN(Cc4cc(Cl)cc(C(F)(F)F)c4)C3)C2)n1 (stereo not drawn) [Example 433, 1-(7-(3-chloro-5-(trifluoromethyl)benzyl)-2,7-diazaspiro[4.4]non-ane-2-carbonyl)-1H-pyrazole-3-carboxamide]
> 75 | > 75 | – | – | > 75 | > 75 | 0.1 to 1 | NC(=O)c1ccn(C(=O)N2CCC3(CCN(Cc4ccc(N5CCOCC5)cc4Cl)C3)CC2)n1 [Example 197, 1-(2-(2-chloro-4-morpholinobenzyl)-2,8-diazaspiro[4.5]decane-8-carbonyl)-1H-pyrazole-3-carboxamide]
